Paper PMC7782793, “Hydroxamic acid-modified peptide microarrays for profiling isozyme-selective interactions and inhibition of histone deacetylases” (Nature Communications, 2021)
Values joined by “and” are separate entries in the source; they are usually repeats but may differ in a detail not shown here. Equal values may be shown once. Marks after values point to notes of the source that are not given here. Non-standard residues stand in square brackets, D forms with d. Residues, ends and D or L forms follow the SMILES beside them. *: point of attachment. Asu = N[C@@H](CCCCCC(=O)O)C(=O)O; NHOH = ON*

How the values were obtained:
[1] = target: T1, HDAC1 (Homo sapiens, UniProt Q13547); test: HDAC inhibition assay (fluorogenic, Ac-Leu-Gly-Lys(Ac)-AMC); format: biochemical; conditions: for HDAC1 dose-response data (relative enzyme activity), Fig. 6 + S. Fig. 10: duplicate columns
T1 construct: HDAC1 (full length, C-terminal His tag, C-terminal FLAG tag, BPS Bioscience, cat. #: 50051); FLAG (C); purchased BPS Bioscience 50051
T1 sequence (Q13547 whole entry): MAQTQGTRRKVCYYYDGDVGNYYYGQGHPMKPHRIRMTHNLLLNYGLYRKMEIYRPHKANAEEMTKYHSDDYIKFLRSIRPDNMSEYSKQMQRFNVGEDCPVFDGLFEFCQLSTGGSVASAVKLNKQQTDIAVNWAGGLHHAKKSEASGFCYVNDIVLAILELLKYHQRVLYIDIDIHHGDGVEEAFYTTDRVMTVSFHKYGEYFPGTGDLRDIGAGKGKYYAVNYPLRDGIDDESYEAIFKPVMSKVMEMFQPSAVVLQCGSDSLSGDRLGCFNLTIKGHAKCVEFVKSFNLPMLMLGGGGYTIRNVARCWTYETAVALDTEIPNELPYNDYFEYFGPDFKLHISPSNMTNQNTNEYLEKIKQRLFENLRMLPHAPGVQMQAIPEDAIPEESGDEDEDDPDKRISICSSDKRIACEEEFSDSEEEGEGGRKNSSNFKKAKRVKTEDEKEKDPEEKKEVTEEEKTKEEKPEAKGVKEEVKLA

[2] = target: T2, HDAC8 (Homo sapiens, UniProt Q9BY41); test: HDAC inhibition assay (fluorogenic, Ac-Leu-Gly-Lys(Tfa)-AMC); format: biochemical; conditions: for HDAC8 dose-response data (relative enzyme activity, replicate values), Fig. 6 + S. Fig. 10: two replicate columns per inhibitor; for HDAC8 dose-response data (relative enzyme activity), Fig. 6 + S. Fig. 10: duplicate columns
T2 construct: HDAC8 (full length, C-terminal His tag, BPS Bioscience, cat. #: 50008); purchased BPS Bioscience 50008
T2 sequence (Q9BY41 1-377): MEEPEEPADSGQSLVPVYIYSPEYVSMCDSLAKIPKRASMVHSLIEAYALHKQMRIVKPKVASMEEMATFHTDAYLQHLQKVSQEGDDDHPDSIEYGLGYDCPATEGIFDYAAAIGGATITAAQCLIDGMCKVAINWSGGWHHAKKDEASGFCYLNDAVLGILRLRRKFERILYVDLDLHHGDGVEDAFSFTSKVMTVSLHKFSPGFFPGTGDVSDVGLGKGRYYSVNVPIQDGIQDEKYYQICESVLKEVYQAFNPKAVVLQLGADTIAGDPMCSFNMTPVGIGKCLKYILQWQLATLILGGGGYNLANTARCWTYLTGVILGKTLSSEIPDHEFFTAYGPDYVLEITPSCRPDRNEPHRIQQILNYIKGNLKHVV

[3] = target: T1, HDAC1; test: Recombinant HDAC µSPOT microarray binding assay;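 note: slides with spotted peptides incubated with six HDAC concentrations in HEPES buffer pH 7.4, spot intensities fitted by four-parameter logistic, EC50 as enzyme concentration giving half-maximal binding signal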
[4] = target: T3, HDAC3/NCoR2 (Homo sapiens, UniProt O15379); test: Recombinant HDAC µSPOT microarray binding assay;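 note: peptide spots on cellulose slides incubated with rising HDAC enzyme concentrations, imaged together, four-parameter logistic fit, EC50 is enzyme concentration giving half-maximal binding signal, two experiments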
T3 construct: HDAC3/NCoR2 (full length, C-terminal His tag, NCoR2 N-terminal GST tag); purchased BPS Bioscience 50003
T3 sequence (O15379 whole entry): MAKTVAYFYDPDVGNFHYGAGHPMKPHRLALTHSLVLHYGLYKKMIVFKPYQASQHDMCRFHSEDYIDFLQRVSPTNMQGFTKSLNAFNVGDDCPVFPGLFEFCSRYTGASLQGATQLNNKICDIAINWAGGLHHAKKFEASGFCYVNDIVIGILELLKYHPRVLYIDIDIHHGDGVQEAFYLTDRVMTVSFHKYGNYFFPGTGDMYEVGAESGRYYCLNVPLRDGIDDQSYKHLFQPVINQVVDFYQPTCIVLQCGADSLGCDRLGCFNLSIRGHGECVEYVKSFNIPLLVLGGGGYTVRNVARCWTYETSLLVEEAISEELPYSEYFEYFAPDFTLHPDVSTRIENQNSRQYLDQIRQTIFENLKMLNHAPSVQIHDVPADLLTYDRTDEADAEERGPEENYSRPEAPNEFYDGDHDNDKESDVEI
T3 sequence (Q9Y618 389-480 partner limits assumed): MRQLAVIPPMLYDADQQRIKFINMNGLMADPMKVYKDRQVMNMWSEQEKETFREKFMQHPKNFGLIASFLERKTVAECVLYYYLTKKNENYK
Method: Experiments were performed twice, data were obtained with Array Analyze software (Active Motif), and data analysis and representation were performed with the GraphPad Prism 7 software. Outliers were curated manually and data were fitted to nonlinear regression [log(agonist) vs. response—variable slope (four parameters)]. […] Non-sigmoidal curves were denoted as not determined (N.D.) The pEC50 values were determined as the concentration of HDAC enzyme required for half-maximal binding signal.

[5] = target: T4, HDAC6 (Homo sapiens, UniProt Q9UBN7); test: HDAC inhibition assay (fluorogenic, Ac-Leu-Gly-Lys(Ac)-AMC); format: biochemical; conditions: HDAC6, replicates
T4 construct: HDAC6 (full length, BPS Bioscience, cat. #: 50056); purchased BPS Bioscience 50056
T4 sequence (Q9UBN7 1-1215): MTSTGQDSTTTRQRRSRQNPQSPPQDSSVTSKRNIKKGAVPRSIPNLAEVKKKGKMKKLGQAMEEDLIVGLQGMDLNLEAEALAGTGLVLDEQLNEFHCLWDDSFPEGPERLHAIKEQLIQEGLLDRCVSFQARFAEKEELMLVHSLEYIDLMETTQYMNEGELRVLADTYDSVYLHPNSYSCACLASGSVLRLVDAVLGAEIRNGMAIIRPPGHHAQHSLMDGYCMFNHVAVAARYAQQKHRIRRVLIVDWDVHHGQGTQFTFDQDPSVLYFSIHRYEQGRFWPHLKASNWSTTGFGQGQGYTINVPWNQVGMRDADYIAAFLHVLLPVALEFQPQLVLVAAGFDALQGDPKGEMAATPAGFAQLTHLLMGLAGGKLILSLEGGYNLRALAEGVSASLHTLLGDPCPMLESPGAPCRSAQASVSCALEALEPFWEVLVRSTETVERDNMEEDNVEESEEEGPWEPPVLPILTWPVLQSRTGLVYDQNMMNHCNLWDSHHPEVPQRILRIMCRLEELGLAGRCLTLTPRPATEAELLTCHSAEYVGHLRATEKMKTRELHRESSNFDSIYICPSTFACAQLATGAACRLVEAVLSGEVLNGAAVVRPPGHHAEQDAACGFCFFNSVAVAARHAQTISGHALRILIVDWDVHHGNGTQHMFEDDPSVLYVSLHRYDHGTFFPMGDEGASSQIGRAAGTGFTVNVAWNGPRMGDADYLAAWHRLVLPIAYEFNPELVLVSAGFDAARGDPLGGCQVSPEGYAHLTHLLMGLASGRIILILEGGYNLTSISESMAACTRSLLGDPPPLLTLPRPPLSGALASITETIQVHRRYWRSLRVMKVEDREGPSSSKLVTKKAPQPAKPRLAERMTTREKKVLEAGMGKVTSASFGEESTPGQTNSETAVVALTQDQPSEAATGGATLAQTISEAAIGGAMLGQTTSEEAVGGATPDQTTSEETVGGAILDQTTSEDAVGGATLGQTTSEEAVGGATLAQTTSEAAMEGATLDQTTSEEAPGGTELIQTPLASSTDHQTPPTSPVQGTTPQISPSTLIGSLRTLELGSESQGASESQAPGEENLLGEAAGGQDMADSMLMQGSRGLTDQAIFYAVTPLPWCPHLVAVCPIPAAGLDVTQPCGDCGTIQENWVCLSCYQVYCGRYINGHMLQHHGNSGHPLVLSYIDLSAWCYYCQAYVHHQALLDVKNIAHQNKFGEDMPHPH

[6] = target: T5, HDAC2 (Homo sapiens, UniProt Q92769); test: as above; format: biochemical; conditions: for HDAC2 dose-response data (relative enzyme activity), Fig. 6 + S. Fig. 10: duplicate columns
T5 construct: HDAC2 (full length, C-terminal His tag, BPS Bioscience, cat. #: 50002); purchased BPS Bioscience 50002
T5 sequence (Q92769 whole entry): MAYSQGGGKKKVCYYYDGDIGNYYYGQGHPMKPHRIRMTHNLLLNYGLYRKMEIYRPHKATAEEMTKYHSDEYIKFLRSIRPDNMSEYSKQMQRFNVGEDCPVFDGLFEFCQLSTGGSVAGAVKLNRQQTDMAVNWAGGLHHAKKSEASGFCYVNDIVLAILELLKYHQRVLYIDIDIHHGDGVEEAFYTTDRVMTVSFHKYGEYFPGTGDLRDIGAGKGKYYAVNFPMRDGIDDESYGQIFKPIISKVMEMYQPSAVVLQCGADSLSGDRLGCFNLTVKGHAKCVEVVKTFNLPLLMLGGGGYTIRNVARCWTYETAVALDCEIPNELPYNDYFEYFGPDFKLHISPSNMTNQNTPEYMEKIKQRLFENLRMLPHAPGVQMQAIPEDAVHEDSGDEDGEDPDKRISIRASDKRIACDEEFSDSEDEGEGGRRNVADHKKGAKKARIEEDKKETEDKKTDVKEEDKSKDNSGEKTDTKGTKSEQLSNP

[7] = target: T3, HDAC3/NCoR2; test: as above; format: biochemical; conditions: for HDAC3 dose-response data (relative enzyme activity), Fig. 6 + S. Fig. 10: duplicate columns
[8] = log[inhibitor(M)] -10,5850266520292*, whole line marked with asterisks

CC(=O)N[C@@H](C)C(=O)N[C@@H](CCCNC(=N)N)C(=O)N[C@@H](CCCCN)C(=O)N[C@@H](CO)C(=O)N[C@H](C(=O)NCC(=O)NCC(=O)N[C@@H](CCCCN)C(=O)N[C@@H](C)C(=O)N1CCC[C@H]1C(=O)N[C@@H](CCCNC(=N)N)C(=O)N[C@@H](CCCCCC(=O)NO)C(=O)N[C@@H](CCC(N)=O)C(=O)N[C@@H](CC(C)C)C(=O)N[C@@H](C)C(=O)N[C@H](C(=O)N[C@@H](Cc1c[nH]c2ccccc12)C(N)=O)[C@@H](C)O)[C@@H](C)O [13a] (Ac-ARKSTGGKAPR[Asu](NHOH)QLATW-NH2)
Ki [1]: 17.9 ± 0.4 nM | HDAC1 dose-response data (relative enzyme activity), Fig. 6 + S. Fig. 10 ([1]; log[inhibitor(M)] -5): 5.502 and 6.317 | HDAC1 dose-response data (relative enzyme activity), Fig. 6 + S. Fig. 10 ([1]; log[inhibitor(M)] -5.69897): 16.4811 and 18.8712 | HDAC1 dose-response data (relative enzyme activity), Fig. 6 + S. Fig. 10 ([1]; log[inhibitor(M)] -6.39794): 32.4053 and 35.9654 | HDAC1 dose-response data (relative enzyme activity), Fig. 6 + S. Fig. 10 ([1]; log[inhibitor(M)] -7.09691): 44.2666 and 47.9606 | HDAC1 dose-response data (relative enzyme activity), Fig. 6 + S. Fig. 10 ([1]; log[inhibitor(M)] -7.79588): 60.5299 and 62.3252 | HDAC1 dose-response data (relative enzyme activity), Fig. 6 + S. Fig. 10 ([1]; log[inhibitor(M)] -8.49485): 80.9321 and 81.9464 | HDAC1 dose-response data (relative enzyme activity), Fig. 6 + S. Fig. 10 ([1]; log[inhibitor(M)] -9.19382): 95.5469 and 95.3965 | HDAC1 dose-response data (relative enzyme activity), Fig. 6 + S. Fig. 10 ([1]; log[inhibitor(M)] -9.89279): 98.1308 and 82.1941 | HDAC1 dose-response data (relative enzyme activity), Fig. 6 + S. Fig. 10 [1, 8]: 98,3704548* and 94,2568861* | Ki [2]: 5.1 ± 0.03 nM | HDAC8 dose-response data (relative enzyme activity, replicate values), Fig. 6 + S. Fig. 10 ([2]; Inhibitor conc [M] -8.49485 (log)): 71.9184 and 69.3811 | HDAC8 dose-response data (relative enzyme activity, replicate values), Fig. 6 + S. Fig. 10 ([2]; Inhibitor conc [M] -9.19382 (log)): 90.9342 and 89.4061 | HDAC8 dose-response data (relative enzyme activity, replicate values), Fig. 6 + S. Fig. 10 ([2]; Inhibitor conc [M] given as -7.09691 (log)): 21.0963 and 19.8616 | HDAC8 dose-response data (relative enzyme activity, replicate values), Fig. 6 + S. Fig. 10 ([2]; Inhibitor conc [M] given as -7.79588 (log)): 40.3806 and 38.3863 | HDAC8 dose-response data (relative enzyme activity, replicate values), Fig. 6 + S. Fig. 10 ([2]; Inhibitor conc [M] given as -9.89279 (log)): 99.1075 and 97.7 | HDAC8 dose-response data (relative enzyme activity, replicate values), Fig. 6 + S. Fig. 10 ([2]; Inhibitor conc [M] given as -10.585 (log)): 102.311 and 100.47 | HDAC8 dose-response data (relative enzyme activity), Fig. 6 + S. Fig. 10 ([2]; Inhibitor conc [M] -4.30103): 1.362 and 1.423 | HDAC8 dose-response data (relative enzyme activity), Fig. 6 + S. Fig. 10 ([2]; Inhibitor conc [M] -5): 4.393 and 4.0005 | HDAC8 dose-response data (relative enzyme activity), Fig. 6 + S. Fig. 10 ([2]; Inhibitor conc [M] -5.69897): 9.7232 and 9.03 | HDAC8 dose-response data (relative enzyme activity), Fig. 6 + S. Fig. 10 ([2]; Inhibitor conc [M] -6.39794): 13.9289 and 13.185 | EC50 [3]: > 25.1 nM | EC50 [4]: 4.17 nM | residual enzymatic activity relative to control wells ([5]; log[inhibitor(M)] -4.30103): -1.734 and 1.049 | residual enzymatic activity relative to control wells ([5]; log[inhibitor(M)] -5): -1.228 and 1.2154 | residual enzymatic activity relative to control wells ([5]; log[inhibitor(M)] -5.69897): 0.01806 and 2.993 | residual enzymatic activity relative to control wells ([5]; log[inhibitor(M)] -6.39794): 4.479 and 8.186 | residual enzymatic activity relative to control wells ([5]; log[inhibitor(M)] -7.09691): 18.6761 and 22.7019 | residual enzymatic activity relative to control wells ([5]; log[inhibitor(M)] -7.79588): 46.5457 and 51.1177 | residual enzymatic activity relative to control wells ([5]; log[inhibitor(M)] -8.49485): 65.89 and 75.8407 | residual enzymatic activity relative to control wells ([5]; log[inhibitor(M)] -9.19382): 72.6813 and 83.6344 | residual enzymatic activity relative to control wells ([5]; log[inhibitor(M)] -9.89279): 83.1572 and 99.4226 | residual enzymatic activity relative to control wells ([5]; log[inhibitor(M)] -10.585): 85.7762 and 94.8721 | HDAC2 dose-response data (relative enzyme activity), Fig. 6 + S. Fig. 10 ([6]; log[inhibitor(M)] -5): 9.3053 and 9.139 | HDAC2 dose-response data (relative enzyme activity), Fig. 6 + S. Fig. 10 ([6]; log[inhibitor(M)] -5.69897): 27.8438 and 26.8455 | HDAC2 dose-response data (relative enzyme activity), Fig. 6 + S. Fig. 10 ([6]; log[inhibitor(M)] -7.79588): 88.6532 and 82.3131 | HDAC2 dose-response data (relative enzyme activity), Fig. 6 + S. Fig. 10 [6, 8]: 104,855804* and 98,2337504* | Ki ([6]; resynthesized peptide in solution, Cheng-Prusoff, n = 2): 60 ± 1 nM | Ki [7]: 2.14 ± 0.02 nM | HDAC3 dose-response data (relative enzyme activity), Fig. 6 + S. Fig. 10 ([7]; log[inhibitor(M)] -4.30103): 0.9488 and 1.386 | HDAC3 dose-response data (relative enzyme activity), Fig. 6 + S. Fig. 10 ([7]; log[inhibitor(M)] -5): 3.154 and 2.6883 | HDAC3 dose-response data (relative enzyme activity), Fig. 6 + S. Fig. 10 ([7]; log[inhibitor(M)] -5.69897): 8.657 and 8.271 | HDAC3 dose-response data (relative enzyme activity), Fig. 6 + S. Fig. 10 ([7]; log[inhibitor(M)] -6.39794): 15.6479 and 15.4413 | HDAC3 dose-response data (relative enzyme activity), Fig. 6 + S. Fig. 10 ([7]; log[inhibitor(M)] -7.09691): 23.7196 and 23.3659 | HDAC3 dose-response data (relative enzyme activity), Fig. 6 + S. Fig. 10 ([7]; log[inhibitor(M)] -7.79588): 41.0048 and 43.3286 | HDAC3 dose-response data (relative enzyme activity), Fig. 6 + S. Fig. 10 ([7]; log[inhibitor(M)] -8.49485): 70.4254 and 74.0708 | HDAC3 dose-response data (relative enzyme activity), Fig. 6 + S. Fig. 10 ([7]; log[inhibitor(M)] -9.19382): 90.1455 and 92.6434 | HDAC3 dose-response data (relative enzyme activity), Fig. 6 + S. Fig. 10 ([7]; log[inhibitor(M)] -9.89279): 95.7935 and 97.884 | HDAC3 dose-response data (relative enzyme activity), Fig. 6 + S. Fig. 10 [7, 8]: 98,4914638* and 97,1472426* | selectivity for HDAC3 vs. HDACs 1 and 2 ([7]; resynthesized peptides, from Ki): > 8 fold
